Assay results: ChEMBL document CHEMBL4138138, “Addressing the Metabolic Stability of Antituberculars through Machine Learning” (ACS Med Chem Lett, 2017)
Converted amounts (≈) assume the structure as drawn.

Legend:
[1] = Half life in mouse liver microsomes; type: ADME, microsome
[2] = test system: Mycobacterium tuberculosis; assay: Antimycobacterial activity against Mycobacterium tuberculosis H37Rv measured after 1 week by resazurin assay; type: functional; details: 168 h
[3] = Intrinsic clearance in mouse liver microsomes; type: ADME, microsome; details: read-out: CLH
[4] = Cytotoxicity against African green monkey Vero cells assessed as reduction in cell viability after 72 hrs by MTS/PMS assay; type: cell-based; details: chlorocebus sabaeus
[5] = Selectivity index, ratio of CC50 for African green monkey Vero cells to MIC for Mycobacterium tuberculosis H37Rv; type: toxicity; details: read-out: Selectivity Index

Structure (SMILES) | half-life [1] | MIC [2] | microsomal CLint [3] | CC50 at 72 h [4] | selectivity ratio [5]
Cc1ccc(CSc2nc(N)c3c4c(sc3n2)CC(C(C)(C)C)CC4)s1 (configuration not stated) | 31.8 min | > 200 µg/mL | 21.8 µL/min/mg | 12.5 µg/mL (≈ 31 µM) | –
CC(C)(C)C1CCc2c(sc3nc(SCc4cccc([N+](=O)[O-])c4)nc(N)c23)C1 (configuration not stated) | 47.5 min | 10 µg/mL (≈ 23.3 µM) | 14.6 µL/min/mg | > 200 µg/mL | > 20
CC(C)(C)C1CCc2c(sc3nc(SCc4ccnn4C4CCCCO4)nc(N)c23)C1 (configuration not stated) | 60.3 min | 25 µg/mL (≈ 54.6 µM) | 11.5 µL/min/mg | 6.2 µg/mL (≈ 13.5 µM) | –
Cc1ccc(CSc2nc(N)c3c4c(sc3n2)CC(C(C)(C)C)CC4)o1 (configuration not stated) | 19.7 min | 200 µg/mL (≈ 516 µM) | 35.1 µL/min/mg | 3.1 µg/mL (≈ 8 µM) | –
CC(C)(C)C1CCc2c(sc3nc(SCc4ccc(C(=O)O)cc4[N+](=O)[O-])nc(N)c23)C1 (configuration not stated) | 120 min | 12.5 to 25 µg/mL (≈ 26.4 to 52.9 µM) | 5.8 µL/min/mg | > 50 µg/mL | –
CC(C)(C)C1CCc2c(sc3nc(SCc4ccc5c(c4)OCO5)nc(N)c23)C1 (configuration not stated) | 64.2 min | > 200 µg/mL | 10.8 µL/min/mg | > 50 µg/mL | –
COc1ccc([N+](=O)[O-])cc1CSc1nc(N)c2c3c(sc2n1)CC(C(C)(C)C)CC3 (configuration not stated) | 87.7 min | > 200 µg/mL | 7.9 µL/min/mg | 12.5 µg/mL (≈ 27.3 µM) | –
Cc1nc(CSc2nc(N)c3c4c(sc3n2)CC(C(C)(C)C)CC4)sc1C (configuration not stated) | 21.7 min | 100 to 200 µg/mL (≈ 239 to 478 µM) | 31.9 µL/min/mg | 1.6 µg/mL (≈ 3.82 µM) | –
CC(C)(C)C1CCc2c(sc3nc(SCc4cc([N+](=O)[O-])ccc4O)nc(N)c23)C1 (configuration not stated) | 58.2 min | 200 µg/mL (≈ 450 µM) | 11.9 µL/min/mg | 50 µg/mL (≈ 112 µM) | –
CC(C)(C)C1CCc2c(sc3nc(SCc4nccs4)nc(N)c23)C1 (configuration not stated) | 66.6 min | – | – | – | –
Cc1cc(CSc2nc(N)c3c4c(sc3n2)CC(C(C)(C)C)CC4)no1 (configuration not stated) | 19 min | – | – | – | –
CCOC(=O)CSc1nc(N)c2c3c(sc2n1)CC(C(C)(C)C)CC3 (configuration not stated) | < 1 min | 0.19 to 0.38 µg/mL (≈ 0.501 to 1 µM) | > 1390 µL/min/mg | 45 µg/mL (≈ 119 µM) | 120 to 240
Cc1cccc(CSc2nc(N)c3c4c(sc3n2)CC(C(C)(C)C)CC4)n1 (configuration not stated) | 17 min | > 200 µg/mL | 40.8 µL/min/mg | 25 µg/mL (≈ 62.7 µM) | –
CC(C)(C)C1CCc2c(sc3nc(SCc4ccc(C(=O)O)cc4)nc(N)c23)C1 (configuration not stated) | 95 min | 25 to 50 µg/mL (≈ 58.5 to 117 µM) | 7.3 µL/min/mg | 50 µg/mL (≈ 117 µM) | –
Cn1nccc1CSc1nc(N)c2c3c(sc2n1)CC(C(C)(C)C)CC3 (configuration not stated) | 60.8 min | 10 µg/mL (≈ 25.8 µM) | 11.4 µL/min/mg | 100 µg/mL (≈ 258 µM) | 10
CC(C)(C)C1CCc2c(sc3nc(SCc4ccc([N+](=O)[O-])cc4)nc(N)c23)C1 (configuration not stated) | 34.3 min | > 200 µg/mL | 20.1 µL/min/mg | > 50 µg/mL | –
NNC(=O)c1ccncc1 [ISONIAZID] | – | 0.039 µg/mL (≈ 0.284 µM) | – | – | –
